# In patent US20090093443A1, “COMBINATIONS OF 4- BROMO-2-(4-CHLOROPHENYL)-5-(TRIFLUOROMETHYL)-1H-PYRROLE-3-CARBONITRILE AND BIOCIDAL COMPOUNDS” (JASSEN PHARMACEUTICA N.V., priority 2006, published 2009):
# Test system: animal fouling
# Assay: Exposure in the Oosterschelde of painted PVC boards
# Details: for Coverage CO (percentage coverage) / Dry weight Dw (dry weight of fouling organisms) / Fresh weight Fw (fresh weight of fouling organisms): 18 weeks exposure, each active 2.78% in dry paint film; for Coverage CO (percentage coverage): mean of front and backsides of panels; for Dry weight Dw (dry weight of fouling organisms) / Fresh weight Fw (fresh weight of fouling organisms): total of front and backsides; for Coverage % Eo (observed efficacy) / Dry weight % Eo (observed efficacy) / Fresh weight % Eo (observed efficacy): fouling inhibition vs control, 18 weeks, each active 2.78% in dry paint; for Coverage % Eo (observed efficacy): by coverage; for Dry weight % Eo (observed efficacy): by dry weight; for Fresh weight % Eo (observed efficacy): by fresh weight
# From the text: • Test model: exposure in the Oosterschelde of painted PVC boards • Name of the primary compound: 4-bromo-2-(4-chloro-phenyl)-5-(trifluoromethyl)-1H-pyrrole-3-carbonitrile as component (I) • Name of the combination partners: capsaicine as component (II-d); • clonidine as component (II-e); • zosteric acid as component (II-r). • Test formulations: Paint formulation comprising xylene (47.7%), light aromatic solvent naphtha (CAS 64742-95-6) (16.2%), propylene oxide (0.06%), and zinc oxid (2.24%). Paint was diluted with 10% xylene to obtain the wet paint which was applied to the panels. • Dosage: Individual test compounds were added at a concentration of 1.8% by weight in the wet paint, resulting in 2.78% by weight in the dry paint film. • Test specimens: PVC boards with dimensions of 10×2×0.5 cm. […] Percentage coverage of the panels by fouling organisms as estimated visually. • 2. Fresh weight of fouling organisms on panels in gram. • 3. Dry weight of fouling organisms on panels in gram. Synergy evaluation: Synergy was tested according to the method of Limpel (Limpel, L. E., Schuldt, P. H., and Lamont, D. Weed Control Conf. 16: 48-53, 1962) as described in Colby (Colby, S. R., Weeds 15: 20-22, 1967) and Richer (Richer, D. L., Pesticide Science 19: 309-315, 1987). The single active ingredients were applied at a concentration of 2.78% in the dried coating. In the combinations, both actives were applied at 2.78%, resulting in […] of total active ingredient.
Structure (SMILES),Coverage CO (percentage coverage) [%],Dry weight Dw (dry weight of fouling organisms) [gram],Fresh weight Fw (fresh weight of fouling organisms) [gram],Coverage % Eo (observed efficacy) [%],Dry weight % Eo (observed efficacy) [%],Fresh weight % Eo (observed efficacy) [%]
"N#Cc1c(-c2ccc(Cl)cc2)[nH]c(C(F)(F)F)c1Br [(I), 4-bromo-2-(4-chlorophenyl)-5-(trifluoromethyl)-1H-pyrrole-3-carbonitrile]",42.5,1.94,2.90,19.8,37.9,36.0
"COc1cc(CNC(=O)CCCC/C=C/C(C)C)ccc1O [(II-d), capsaicine]",65.0,3.58,5.50,−22.6,−14.6,−21.3
"Clc1cccc(Cl)c1N=C1NCCN1 [(II-e), clonidine]",72.5,3.92,6.10,−36.8,−25.6,−33.8
"O=C(O)/C=C/c1ccc(OS(=O)(=O)O)cc1 [(II-r), zosteric acid]",57.5,2.05,5.40,−8.5,34.5,−18.4
